Results reported in patent publication US9814758B2, “Inhibitors of apoptosis and uses thereof” (CENTRE NATIONAL DE LA RECHERCHE SCIENTIFIQUE-CNRS, priority 2010, dated 2017).
No end group written: not given here.

Assays:
C2C12 cells = experiment: STS-induced DNA fragmentation (Cell Death detection ELISA PLUS) in C2C12 cells; assay type: cell-based, mouse; conditions: murine C2C12 (model for muscle cells); FIG. 5A
Method: FIG. 5: In vitro evaluation of the anti-apoptotic activity of CPPs and CPP-conjugates. Workflow and quantitation of DNA fragmentation in (A) C2C12 cells, (B) primary cardiomyocytes, (C) H9c2 cells and (D) NG108-15 cells. Data were normalized to 100% STS. Data shown are the means±SEM, with n≧5. Cells were seeded in 24-well plates and grown overnight. The next day, the cells were incubated with STS alone or with STS+1 μM peptide (in OPTI-MEM) (OPTI-MEM® is a modification of Eagle's Minimum Essential Media, buffered with HEPES and sodium bicarbonate, and supplemented with hypoxanthine, thymidine, sodium pyruvate, L-glutamine, trace elements, and growth factors) (STS concentration and incubation time for each cells are given in the figure). […] Following the regeneration phase, the cells were lyzed and DNA fragmentation was detected according to manufacturer's instructions (Cell Death detection ELISA^PLUS kit—Roche Diagnostics). […]
Thereafter, the capacity of these peptides to inhibit apoptosis induced by staurosporine was evaluated. Apoptosis was determined using the Cell Death detection ELISA^PLUS kit (Roche) measuring the DNA fragmentation.
The anti-apoptotic effects of the peptides were also analyzed in murine NG118-15 (model for neuronal cells) (FIG. 5D), in murine C2C12 (model for muscle cells) (FIG. 5A) and in rat H9c2 (model for cardiac cells) (FIG. 5C). […]

[1] = target: T1, His-tagged intracellular region of Fas receptor (Homo sapiens, UniProt P25445); experiment: SPOT peptide array, enzyme-linked blot with His-tagged Fas; assay type: binding; conditions: Fas 10 μg/ml; anti-His/anti-mouse-HRP
T1 construct: His-tagged intracellular region of Fas receptor [10 μg/ml]; purchased Sigma
T1 sequence (P25445 191-335 limits assumed): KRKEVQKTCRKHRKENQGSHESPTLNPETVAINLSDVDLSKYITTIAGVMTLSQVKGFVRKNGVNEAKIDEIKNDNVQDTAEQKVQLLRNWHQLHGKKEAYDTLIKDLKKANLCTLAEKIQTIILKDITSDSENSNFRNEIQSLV
Method: FIG. 1: Determination of the DAXX epitope by SPOT synthesis. (A) The amino acid sequence of DAXX was dissected in overlapping peptide arrays (pepscan; 15 mer peptides with a shift of 3 amino acids) and analyzed in enzyme-linked blot. […] Incubation conditions: His-tagged intracellular region of Fas receptor [10 μg/ml]; antibodies: anti-His-(mouse) (Sigma H1029; 1:6,000)/anti-mouse-HRP (Calbiochem 401207; 1:2,000), exposure time: 1 minute. (B) Alignment of the human DAXX sequence comprising the 16-mer KKSRKEKKQTGSGPLG (=DAXXp of SEQ ID NO: 5) with the DAXX sequences of other species (mouse, rat, dog (CANFA) and green monkey (CHLAE)).
FIG. 2: Determination of the optimal length of the DAXX epitope (=DAXXp) by SPOT synthesis. (A) The DAXXp-211 and DAXXp-209 peptides (of SEQ ID NO: 2 and SEQ ID NO: 3, respectively) were successively shortened by one amino acid residue at the N-terminus, at the C-terminus and both at the N- and the C-termini, and analyzed using enzyme-linked blot. […] Incubation conditions: His-tagged intracellular region of Fas receptor [10 μg/ml]; antibodies: anti-His-(mouse) (Sigma H1029; 1:6,000)/anti-mouse-HRP (Calbiochem 401207; 1:2,000), exposure time: 1 minute. (B) Alignment of both peptide sequences DAXXp-211 and DAXXp-209; corresponding to the brightest spots, to determine the optimal DAXX peptide sequence.
FIG. 8: Determination of FADDp15 and its anti-apoptotic effect in cardiomyocytes. (A) The protein sequences of FADD were dissected in overlapping peptide arrays (pepscan; 15 mer peptides with a shift of 3 amino acids) and analyzed using enzyme-linked blot. […] (B) The peptide sequence of FADDp-11 (=FADDp15=SEQ ID NO: 9) was successively shortened by one amino acid residue at the C-terminus, the N-terminus, or at both the C-terminus and the N-terminus, and analyzed using enzyme-linked blot. […] The shortest FADD epitope (a 9-mer with sequence KRKLERVQS (=FADDp=SEQ ID NO: 12)) corresponded to spot No. 24. Incubation conditions: His-tagged intracellular region of Fas receptor [10 μg/ml]; antibodies: anti-His-(mouse) (Sigma H1029; 1:6,000)/anti-mouse-HRP (Calbiochem 401207; 1:2,000), exposure time: 1 minute.
The peptides were synthesized on N-modified CAPE-membranes (Bhargava et al, Mol. Recognit, 2002, 15: 145) and prepared by a MultiPep SPOT-robot (INTAVIS Bioanalytical Instruments AG, Cologne, Germany). Array design was performed with the aid of the in-house software LISA 1.71. The synthesis started with spot definition using a standard protocol [Frank, Tetrahedron, 1992, 48: 9217), followed by the coupling of a solution of Fmoc-cysteine-(Trt)-Opfp (0.3M) in N-methylpyrolidone (NMP) and Fmoc-alanine-Opfp (double coupling, 15 min reaction each). After Fmoc cleavage with piperidine in DMF (20%), 4-hydroxymethylphenoxyacetic acid (HMPA) dissolved in dimethylformamide (DMF, 0.6M solution) and activated with EEDQ (1.1 equiv) was added, and samples were directly spotted on the membrane (4× coupling, 15 min reaction each). The membrane was acetylated with acetic anhydride in DMF (2%), washed with DMF (5×3 min), ethanol (2×3 min), and diethyl ether (2×3 min), and finally air dried. Solutions of Fmoc-amino acid-OH (0.4M) activated with 1,1′-carbonyldiimidazole (CDI, 3 equiv) in DMF were spotted on the membrane (4× coupling, 15 min reaction time each). Proline, tyrosine, and glutamine were activated with 1,1′-carbonyldi(1,2,4-triazole) (CDT). The Fmoc group was removed from the spots, and the peptide sequences were completed using the standard SPOT synthesis protocol (Frank, Tetrahedron, 1992, 48: 9217) followed by a N-terminal tag with β-alanine.
The primary sequence of the DAXX protein (SEQ ID NO: 1) was dissected in overlapping 15 mer peptides (3 amino acids shift) and all the peptides (243 peptides) were synthesized on cellulose membrane by SPOT synthesis as described above. The peptide library was incubated with the His-tagged intra-cellular region of the Fas receptor (Sigma). […]

Row | Substance | reduction in DNA fragmentation (C2C12 cells) | interaction with the Fas receptor / signal intensity of the spot [1]
1 | GRKKRRQRRRPPQKKSRKEKKQTGSGPLG-NH2 [Tat-DAXXp, GRKKRRQRRRPPQ-KKSRKEKKQTGSGPLG-NH2] | 24% | –
2 | KKSRKEKKQTGSGPLG-NH2 [DAXXp, KKSRKEKKQTGSGPLG-NH2] | – | interact with the Fas receptor
